# Results taken from patent publication US11795481B2, “Processes for producing a fermentation product” (Novozymes A/S, priority 2017, dated 2023).
# B1: PE001: variant of the Penicillium oxalicum glucoamylase of SEQ ID NO: 106 having a K79V substitution (protein, listed as Penicillium oxalicum)
# chain: RPDPKGGNLTPFIHKEGERSLQGILDNLGGRGKKTPGTAAGLFIASPNTENPNYYYTWTRDSALTAKCLIDLFEDSRAVFPIDRKYLETGIRDYKSSQAILQSVSNPSGTLKDGSGLGEPKFEIDLNPFSGAWGRPQRDGPALRATAMITYANYLISHGQKSDVSQVMWPIIANDLAYVGQYWNNTGFDLWEEVDGSSFFTIAVQHRALVEGSQLAKKLGKSCDACDSQPPQILCFLQSFWNGKYITSNINTQASRSGIDLDSVLGSIHTFDPEAACDDATFQPCSARALANHKVYVDSFRSIYKINAGLAEGSAANVGRYPEDVYQGGNPWYLATLGASELLYDALYQWDRLGKLEVSETSLSFFKDFDATVKIGSYSRNSKTYKKLTQSIKSYADGFIQLVQQYTPSNGSLAEQYDRNTAAPLSANDLTWSFASFLTATQRRDAVVPPSWGAKSANKVPTTCSASPVVGTYKAPTATFSSKTKCVPAKDIVPITFYLIENTYYGENVFMSGNITALGNWDAKKGFPLTANLYTQDQNLWFASVEFIPAGTPFEYKYYKVEPNGDITWEKGPNRVFVAPTGCPVQPHSNDVWQF
# B2: Pfu S: commercial product Pyrococcus furiosus protease (Pfu S), SEQ ID NO: 111 (protein, listed as Pyrococcus furiosus)
# chain: AELEGLDESAAQVMATYVWNLGYDGSGITIGIIDTGIDASHPDLQGKVIGWVDFVNGRSYPYDDHGHGTHVASIAAGTGAASNGKYKGMAPGAKLAGIKVLGADGSGSISTIIKGVEWAVDNKDKYGIKVINLSLGSSQSSDGTDALSQAVNAAWDAGLVVVVAAGNSGPNKYTIGSPAAASKVITVGAVDKYDVITSFSSRGPTADGRLKPEVVAPGNWIIAARASGTSMGQPINDYYTAAPGTSMATPHVAGIAALLLQAHPSWTPDKVKTALIETADIVKPDEIADIAYGAGRVNAYKAINYDNYAKLVFTGYVANKGSQTHQFVISGASFVTATLYWDNANSDLDLYLYDPNGNQVDYSYTAYYGFEKVGYYNPTDGTWTIKVVSYSGSANYQVDVVSDGSLSQPGSS
# Experiments:
# multi-strain LAB culture = assay: SSF of control mash with 1% w/w infected mash, AA13 candidates, HPLC of organic acids and ethanol (Example 3); format: cell-based; details: SSF 32° C. up to 24 hours, 20% DS; for % delta Ethanol / % delta Lactic Acid: vs No Treatment
# Experimental: A control mash was prepared in-house with an industry relevant blend of AA369 and Protease Pfu using a Lab-O-Mat incubator for 2 hours at 85° C. and 36% DS to simulate typical industry conditions. The mash was then frozen prior to use in SSF. An infected mash was prepared by infecting the control mash with a multi-strain LAB culture grown in MRS. The bacteria in control mash was incubated overnight, and then frozen with 20% glycerol. For this experiment, 1% weight/weight of the infected mash was mixed into the control mash. This mimics an infection event at a large-scale ethanol facility. For SSF, all mash was prepared with 1000 ppm of urea to aid with yeast fermentation. All treatments were dosed with a baseline commercial glucoamylase GSA, while AA13 candidates were dosed at either 10 ug/g-DS or 50 ug/g-DS. SSF was performed at 5 g scale with 10 uL/g rehydrated Ethanol Red yeast at 32° C. for up to 24 hours at 20% DS. At the end of fermentation, samples were deactivated with 50 uL of 40% sulfuric acid and then centrifuged. The supernatant was filtered through a 0.2 μm filter and then measured for soluble carbohydrates and organic acids using an ion-exchange H-column on HPLC.
# [1] = relative to the parent Penicillium oxalicum glucoamylase; cited from earlier work
# [2] = pH 4.5; cited from earlier work
Molecule,average Ethanol (multi-strain LAB culture; Penicillin dose 25 ppm),average Lactic Acid (multi-strain LAB culture; Penicillin dose 25 ppm),% delta Ethanol (multi-strain LAB culture; Penicillin dose 25 ppm),% delta Lactic Acid (multi-strain LAB culture; Penicillin dose 25 ppm),average Ethanol (multi-strain LAB culture; AA13 dose 10 ug/g-DS),average Lactic Acid (multi-strain LAB culture; AA13 dose 10 ug/g-DS),% delta Ethanol (multi-strain LAB culture; AA13 dose 10 ug/g-DS),% delta Lactic Acid (multi-strain LAB culture; AA13 dose 10 ug/g-DS),average Ethanol (multi-strain LAB culture; AA13 dose 50 ug/g-DS),average Lactic Acid (multi-strain LAB culture; AA13 dose 50 ug/g-DS),% delta Ethanol (multi-strain LAB culture; AA13 dose 50 ug/g-DS),% delta Lactic Acid (multi-strain LAB culture; AA13 dose 50 ug/g-DS),sensitivity to protease degradation [1],thermostability (Relative Activity 80° C./70° C.) [2],thermostability (Relative Activity 90° C./70° C.) [2]
Penicillin [reference compound],80.1 g/L,1.2 g/L,3.1%,−62.4%,,,,,,,,,,,
Penicillium hoeksii: Penicillium hoeksii AA13 polypeptide of SEQ ID NO: 137,,,,,78.1 g/L,3.2 g/L,0.6%,−2.8%,79.1 g/L,3.2 g/L,1.9%,−4.8%,,,
Penicillium samsonianum: Penicillium samsonianum AA13 polypeptide of SEQ ID NO: 140,,,,,77.1 g/L,3.4 g/L,−0.6%,2.2%,77.4 g/L,3.4 g/L,−0.4%,2.0%,,,
Acrostalagmus luteoalbus: Acrostalagmus luteoalbus AA13 polypeptide of SEQ ID NO: 129,,,,,78.9 g/L,3.0 g/L,1.7%,−10.9%,80.0 g/L,2.9 g/L,3.0%,−13.2%,,,
Aspergillus insuetus: Aspergillus insuetus AA13 polypeptide of SEQ ID NO: 130,,,,,76.7 g/L,3.4 g/L,−1.2%,1.7%,77.2 g/L,3.4 g/L,−0.6%,2.1%,,,
Penicillium concentricum: Penicillium concentricum AA13 polypeptide of SEQ ID NO: 136,,,,,78.1 g/L,3.3 g/L,0.6%,−0.6%,78.2 g/L,3.2 g/L,0.7%,−3.2%,,,
Penicillium paxilli: Penicillium paxiffi AA13 polypeptide of SEQ ID NO: 138,,,,,77.8 g/L,3.2 g/L,0.2%,−4.9%,78.1 g/L,3.1 g/L,0.5%,−5.7%,,,
Penicillium roseopurpureum: Penicillium roseopurpureum AA13 polypeptide of SEQ ID NO: 139,,,,,78.0 g/L,3.3 g/L,0.5%,−1.3%,78.1 g/L,3.3 g/L,0.6%,−1.8%,,,
Cladosporium gossypiicola: Cladosporium gossypiicola AA13 polypeptide of SEQ ID NO: 131,,,,,77.5 g/L,3.3 g/L,−0.2%,−1.8%,78.5 g/L,3.2 g/L,1.1%,−4.6%,,,
Penicillium sclerotiorum: Penicillium sclerotiorum AA13 polypeptide of SEQ ID NO: 141,,,,,76.4 g/L,3.5 g/L,−1.6%,6.9%,78.1 g/L,3.3 g/L,0.6%,−0.9%,,,
Penicillium antarcticum: Penicillium antarcticum AA13 polypeptide of SEQ ID NO: 135,,,,,76.4 g/L,3.4 g/L,−1.6%,2.2%,76.2 g/L,3.4 g/L,−1.8%,3.0%,,,
Penicillium vulpinum: Penicillium vulpinum AA13 polypeptide of SEQ ID NO: 147,,,,,79.0 g/L,3.2 g/L,1.7%,−2.9%,78.3 g/L,3.5 g/L,0.9%,4.6%,,,
Penicillium viticola: Penicillium viticola AA13 polypeptide of SEQ ID NO: 146,,,,,76.6 g/L,3.4 g/L,−1.3%,2.2%,77.8 g/L,3.4 g/L,0.2%,2.8%,,,
Penicillium steckii: Penicillium steckii AA13 polypeptide of SEQ ID NO: 145,,,,,76.6 g/L,3.5 g/L,−1.4%,4.5%,77.3 g/L,3.3 g/L,−0.4%,−1.0%,,,
B1,,,,,,,,,,,,,reduced sensitivity to protease degradation relative to the parent,,
B2,,,,,,,,,,,,,,110%,103%
